Laboratory results as given in the supplement of paper PMC11061612.

What was measured:
Assay in all cases: combination Emax (second highest fraction inhibited in the dose matrix, 72 h); higher = more inhibition; extreme values may be limits of the assay
[1] = test system: B-CPAP (Thyroid Gland Carcinoma)
In short: (§1)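 Bliss excess equals the observed combination effect minus the expected value EA + EB − EA·EB, where EA and EB are the effects of each agent alone. Combination Emax is the second-highest inhibition within the matrix. Inhibition was scaled from CellTiter-Glo 2.0 luminescence, with 0 set by vehicle wells and 1 by blank wells, after 72 hours of two-drug dosing of cells plated in 1536-well plates.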

[2] = test system: MDA-MB-361 (Breast Carcinoma)
In short: as §1

[3] = test system: LNCaP-Clone-FGC (Prostate Carcinoma)
In short: as §1

[4] = test system: OVCA420 (Ovarian Carcinoma)
In short: as §1

[5] = test system: CAL-148 (Breast Carcinoma)
In short: as §1

[6] = test system: Hs-578-T (Breast Carcinoma)
In short: as §1

[7] = test system: LS-180 (Colorectal Carcinoma)
In short: as §1

[8] = test system: DEL (T-Cell Non-Hodgkin's Lymphoma)
In short: as §1

[9] = test system: KURAMOCHI (Ovarian Carcinoma)
In short: as §1

[10] = test system: UM-UC-3 (Bladder Carcinoma)
In short: as §1

[11] = test system: HO-1-N-1 (Oral Cavity Carcinoma)
In short: as §1

[12] = test system: RO82-W-1 (Thyroid Gland Carcinoma)
In short: as §1

KELLY (Neuroblastoma) = test system: KELLY (Neuroblastoma)
In short: as §1

[13] = test system: EC-GI-10 (Esophageal Squamous Cell Carcinoma)
In short: as §1

NOS-1 (Osteosarcoma) = test system: NOS-1 (Osteosarcoma)
In short: as §1

[14] = test system: LB831-BLC (Bladder Carcinoma)
In short: as §1

AGS (Gastric Carcinoma) = test system: AGS (Gastric Carcinoma)
In short: as §1

[15] = test system: MFE-296 (Endometrial Carcinoma)
In short: as §1

[16] = test system: SNU-5 (Gastric Carcinoma)
In short: as §1

[17] = test system: HuP-T4 (Pancreatic Carcinoma)
In short: as §1

| Compound | combination Emax [1] | combination Emax [2] | combination Emax [3] | combination Emax [4] | combination Emax [5] | combination Emax [6] | combination Emax [7] | combination Emax [8] | combination Emax [9] | combination Emax [10] | combination Emax [11] | combination Emax [12] | combination Emax (KELLY (Neuroblastoma)) | combination Emax [13] | combination Emax (NOS-1 (Osteosarcoma)) | combination Emax [14] | combination Emax (AGS (Gastric Carcinoma)) | combination Emax [15] | combination Emax [16] | combination Emax [17] |
| --- | --- | --- | --- | --- | --- | --- | --- | --- | --- | --- | --- | --- | --- | --- | --- | --- | --- | --- | --- | --- |
| COc1cccc2c1C(=O)c1c(O)c3c(c(O)c1C2=O)C[C@@](O)(C(=O)CO)C[C@@H]3O[C@H]1C[C@H](N)[C@H](O)[C@H](C)O1 [Doxorubicin] + Cc1cc2ncnn2cc1Nc1ncc2c(n1)n(C1CCOCC1)c(=O)n2C [AZD7648] (first compound max 1 µM, 7x7, partner max 10 µM) | 0.941 | 0.537 | 0.819 | 0.224 | 1 | 0.856 | 0.736 | 1 | 0.546 | 0.802 | 0.979 | 0.628 | 0.789 | 0.693 | 0.369 | 0.871 | 0.986 | 0.295 | 0.823 | 0.657 |
| COc1cc2ncnc(Nc3ccc(F)c(Cl)c3)c2cc1OCCCN1CCOCC1 [Gefitinib] + CC(C)n1c(=O)n(C)c2cnc3cc(F)c(-c4ccc(OCCCN5CCCCC5)nc4)cc3c21 [AZD1390] (first compound max 10 µM, 7x7, partner max 0.3 µM) | 0.108 | 0.207 | 0.089 | 0.646 | 0.142 | 0.319 | 0.292 | 0.187 | 0.128 | 0.0932 | 0.568 | 0.164 | 0.189 | 0.642 | 0.714 | 0.202 | 0.133 | 0.0821 | 0.178 | 0.178 |
| CS(=O)(=O)CCNCc1ccc(-c2ccc3ncnc(Nc4ccc(OCc5cccc(F)c5)c(Cl)c4)c3c2)o1 [Lapatinib] + C[C@@H](Oc1cc(-c2cnn(C3CCNCC3)c2)cnc1N)c1c(Cl)ccc(F)c1Cl [Crizotinib] (first compound max 10 µM, 7x7, partner max 10 µM) | 0.984 | 0.859 | 0.804 | 0.964 | 0.771 | 0.991 | 0.908 | 1 | 0.721 | 0.307 | 0.979 | 0.203 | 0.97 | 0.986 | 0.985 | 0.826 | 0.976 | 0.224 | 0.927 | 0.915 |
| CC(=O)c1c(C)c2cnc(Nc3ccc(N4CCNCC4)cn3)nc2n(C2CCCC2)c1=O [Palbociclib] + CC1(C)CCC(CN2CCN(c3ccc(C(=O)NS(=O)(=O)c4ccc(NCC5CCOCC5)c([N+](=O)[O-])c4)c(Oc4cnc5[nH]ccc5c4)c3)CC2)=C(c2ccc(Cl)cc2)C1 [Venetoclax] (first compound max 10 µM, 7x7, partner max 1 µM) | 0.237 | 0.163 | 0.405 | 0.0625 | 0.161 | 0.189 | 0.61 | 0.874 | 0.0917 | 0.175 | 0.453 | 0.174 | 0.52 | 0.387 | 0.693 | 0.108 | 0.356 | 0.203 | 0.336 | 0.163 |
| CC(=O)c1c(C)c2cnc(Nc3ccc(N4CCNCC4)cn3)nc2n(C2CCCC2)c1=O [Palbociclib] + Cc1c2c(nn1C)CSCc1cc(n(C)n1)CSc1cc(c3ccccc3c1)OCCCc1c(C(=O)O)n(C)c3c-2c(Cl)ccc13 [AZD5991] (first compound max 10 µM, 7x7, partner max 1 µM) | 0.427 | 0.586 | 0.5 | 0.265 | 0.376 | 0.372 | 0.521 | 1 | 0.358 | 0.253 | 0.597 | 0.189 | 0.897 | 0.543 | 0.925 | 0.275 | 0.445 | 0.287 | 0.347 | 0.245 |
| CC(=O)c1c(C)c2cnc(Nc3ccc(N4CCNCC4)cn3)nc2n(C2CCCC2)c1=O [Palbociclib] + Cn1cnc2c(F)c(Nc3ccc(Br)cc3Cl)c(C(=O)NOCCO)cc21 [Selumetinib] (first compound max 10 µM, 7x7, partner max 10 µM) | 0.356 | 0.154 | 0.451 | 0.51 | 0.303 | 0.344 | 0.759 | 0.92 | 0.227 | 0.246 | 0.745 | 0.178 | 0.626 | 0.493 | 0.826 | 0.223 | 0.906 | 0.105 | 0.649 | 0.349 |
| COc1cccc(OCCCN)c1-c1cc(Nc2cnc(C#N)cn2)n[nH]1 [Prexasertib] + C=CCn1c(=O)c2cnc(Nc3ccc(N4CCN(C)CC4)cc3)nc2n1-c1cccc(C(C)(C)O)n1 [AZD1775] (first compound max 1 µM, partner max 1 µM) | 0.874 | 0.926 | 0.846 | 0.726 | 1 | 0.942 | 0.819 | 1 | 0.773 | 0.807 | 0.985 | 0.553 | 1 | 0.956 | 0.432 | 0.836 | 0.901 | 0.644 | 0.969 | 0.882 |
| COc1cccc(OCCCN)c1-c1cc(Nc2cnc(C#N)cn2)n[nH]1 [Prexasertib] + CCc1c2c(nc3ccc(O)cc13)-c1cc3c(c(=O)n1C2)COC(=O)[C@]3(O)CC [SN-38] (first compound max 1 µM, 7x7, partner max 0.3 µM) | 0.968 | 0.913 | 0.766 | 0.75 | 0.935 | 0.982 | 0.759 | 1 | 0.897 | 0.987 | 1 | 0.511 | 1 | 1 | 0.524 | 0.921 | 0.93 | 0.83 | 1 | 0.938 |
| COc1cccc(OCCCN)c1-c1cc(Nc2cnc(C#N)cn2)n[nH]1 [Prexasertib] + CN(C)CCCOc1ccc(-c2ccc3ncc4c(c3c2)n(C2CCOCC2)c(=O)n4C)cn1 [AZD0156] (first compound max 1 µM, 7x7, partner max 1 µM) | 0.686 | 0.954 | 0.827 | 0.676 | 0.642 | 0.942 | 0.789 | 1 | 0.706 | 0.537 | 0.913 | 0.572 | 1 | 0.735 | 0.332 | 0.413 | 0.537 | 0.583 | 0.926 | 0.84 |
| COc1cccc(OCCCN)c1-c1cc(Nc2cnc(C#N)cn2)n[nH]1 [Prexasertib] + C[C@@H]1COCCN1C2=NC(=NC(=C2)C3(CC3)[S@](=N)(=O)C)C4=C5C=CNC5=NC=C4 [AZD6738] (first compound max 1 µM, 7x7, partner max 10 µM) | 0.742 | 0.922 | 0.842 | 0.692 | 0.895 | 0.912 | 0.819 | 1 | 0.647 | 0.615 | 0.898 | 0.441 | 1 | 0.713 | 0.381 | 0.363 | 0.663 | 0.554 | 0.975 | 0.808 |
| COc1cccc(OCCCN)c1-c1cc(Nc2cnc(C#N)cn2)n[nH]1 [Prexasertib] + Cc1cc2ncnn2cc1Nc1ncc2c(n1)n(C1CCOCC1)c(=O)n2C [AZD7648] (first compound max 1 µM, 7x7, partner max 10 µM) | 0.73 | 0.929 | 0.83 | 0.699 | 0.734 | 0.925 | 0.789 | 1 | 0.672 | 0.56 | 0.927 | 0.45 | 1 | 0.713 | 0.321 | 0.314 | 0.48 | 0.569 | 0.983 | 0.839 |
| COc1cccc(OCCCN)c1-c1cc(Nc2cnc(C#N)cn2)n[nH]1 [Prexasertib] + O=C(c1cc(Cc2n[nH]c(=O)c3ccccc23)ccc1F)N1CCN(C(=O)C2CC2)CC1 [Olaparib] (first compound max 1 µM, 7x7, partner max 10 µM) | 0.763 | 0.919 | 0.851 | 0.733 | 0.696 | 0.925 | 0.724 | 1 | 0.68 | 0.629 | 0.938 | 0.45 | 0.98 | 0.78 | 0.373 | 0.448 | 0.426 | 0.525 | 0.968 | 0.851 |
| COc1cc2c(cc1OCCCCCOc1cc3c(cc1OC)C(=O)N1C=C(C)C[C@H]1C=N3)N=C[C@@H]1CC(C)=CN1C2=O [SG3199] + O=C(c1cc(Cc2n[nH]c(=O)c3ccccc23)ccc1F)N1CCN(C(=O)C2CC2)CC1 [Olaparib] (first compound max 0.001 µM, 7x7, partner max 10 µM) | 0.217 | 0.0847 | 0.416 | 0.0795 | 0.211 | 0.256 | 0.181 | 0.597 | 0.129 | 0.132 | 0.103 | 0.17 | 0.375 | 0.198 | 0.155 | 0.159 | 0.248 | 0.0449 | 0.129 | 0.0469 |
